These compounds were tested against T1, human CaMKIIδ (Homo sapiens, UniProt Q13557) (assay: Evaluation of in vitro CaMKII inhibitory activity (binding assay, TR-FRET)). Settings: not given.
T1 construct: Full-length, glutathione-S-transferase(GST)-tagged, human CaMKIIδ was purchased from Carna Biosciences; purchased Carna Biosciences (CaMKIIδ); Wako Pure Chemical Industries (calmodulin) 02-111
How it was run: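 Inhibitors, in eight concentrations of 4-fold dilution, were incubated 1 h at room temperature with a protein–fluorescent probe premix preformed 30 min on ice, containing calmodulin and terbium anti-GST antibody. Displacement read by TR-FRET in duplicate; IC50 by logistic fitting.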

| SMILES | IC50 |
| --- | --- |
| C[C@@H](Cn1cncn1)Oc1cc(-c2ccn3ncc(-c4cc(F)ccc4C#N)c3n2)ccn1 [compound 286] | < 10 nM |

Same assay, conditions: human CaMKIIδ, TR-FRET binding assay; class symbols A/B/C; read-out: Act (CaMKII inhibitory activity, binding assay)

| SMILES | IC50 |
| --- | --- |
| C[C@@H](Cn1cnnn1)Oc1cc(-c2ccc3ncc(-c4cc(C(=O)NCCN5CCOCC5)ccc4C#N)n3n2)ccc1F [compound 148] | 10 to 100 nM |
| COc1cccc(-c2cnc3ccc(-c4ccc(F)c(O[C@@H](C)Cn5cnnn5)c4)nn23)c1C#N [compound 197] | < 10 nM |
| COCCCn1ncc(-c2cnc3ccc(-c4ccc(F)c(O[C@@H](C)Cn5cnnn5)c4)nn23)c1C#N [compound 223, 4-[6-(4-fluoro-3-{[(2S)-1-(1H-tetrazol-1-yl)propan-2-yl]oxy}phenyl)imidazo[1,2-b]pyridazin-3-yl]-1-(3-methoxypropyl)-1H-pyrazole-5-carbonitrile] | < 10 nM |
| CCNC(=O)c1cccc(-c2cnn3ccc(-c4ccc(F)c(O[C@@H](C)Cn5cnnn5)c4)nc23)c1 [compound 8] | < 10 nM |
| CNC(=O)c1cccc(-c2cnn3ccc(-c4ccc(F)c(O[C@@H](C)Cn5cnnn5)c4)nc23)c1 [compound 35] | < 10 nM |
| [2H]C([2H])([2H])Oc1cc(F)cc(-n2cnc3ccc(-c4cccc(O[C@@H](C)Cn5cnnn5)n4)nc32)c1C#N [Example 474, 4-fluoro-2-(methoxy-d3)-6-[5-(6-{[(2S)-1-(1H-tetrazol-1-yl)propan-2-yl]oxy}pyridin-2-yl)-3H-imidazo[4,5-b]pyridin-3-yl]benzonitrile] | < 10 nM |
| C[C@@H](Cn1cnnn1)Nc1cc(-c2ccc3ncc(-c4ncccc4C#N)n3n2)ccc1F [compound 485] | < 10 nM |
| C[C@@H](Cn1cnnn1)Oc1cccc(-c2ccn3ncc(-c4cccc(C(=O)NCc5ccccn5)c4)c3n2)c1 [compound 92] | < 10 nM |
| C[C@@H](Cn1cnnn1)Oc1cccc(-c2ccn3ncc(-c4cccc(C(=O)NCc5cccnc5)c4)c3n2)c1 [compound 94] | < 10 nM |
| C[C@@H](Cn1cnnn1)Oc1cc(-c2ccn3ncc(-c4ccccc4)c3n2)ccc1F [compound 5] | < 10 nM |
| C=Cc1ccccc1-c1cnc2ccc(-c3ccc(F)c(O[C@@H](C)Cn4cnnn4)c3)nn12 [compound 190] | < 10 nM |
| C[C@@H](Cn1cnnn1)Oc1cc(-c2ccc3ncc(-c4cccc(OCCOCCN(C)C)c4C#N)n3n2)ccc1F [compound 209] | < 10 nM |
| C[C@@H](Cn1nnc(N)n1)Oc1cccc(-c2ccn3ncc(-c4cccs4)c3n2)c1 [compound 58] | > 100 nM |
| CCN(CC)CCCNC(=O)c1cccc(-c2cnn3ccc(-c4cccc(O[C@@H](C)Cn5cnnn5)c4)nc23)c1 [compound 69] | < 10 nM |
| C[C@@H](Cn1cnnn1)Oc1cc(-c2ccn3ncc(-c4cccnc4)c3n2)ccc1F [compound 20] | < 10 nM |
| COCOc1cccc(-c2cnc3ccc(-c4ccc(F)c(O[C@@H](C)Cn5cnnn5)c4)nn23)c1C#N [compound 169] | < 10 nM |
| C[C@@H](Cn1cnnn1)Oc1cc(-c2ccn3ncc(-c4cnccc4C#N)c3n2)ccc1F [compound 138] | < 10 nM |
| C[C@@H](Cn1cnnn1)Oc1cccc(-c2ccn3ncc(-c4cccc(C(=O)O)c4)c3n2)c1 [compound 16] | < 10 nM |
| CCN(CC)CCNC(=O)c1cccc(-c2cnn3ccc(-c4ccc(C#N)c(O[C@@H](C)Cn5cnnn5)c4)nc23)c1 [Example 1, 3-[5-(4-cyano-3-{[(2S)-1-(1H-tetrazol-1-yl)propan-2-yl]oxy}phenyl)pyrazolo[1,5-a]pyrimidin-3-yl]-N-[2-(diethylamino)ethyl]benzamide] | 10 to 100 nM |
| C[C@@H](Cn1cnnn1)Oc1cc(-c2ccc3ncc(-c4cn(CC(=O)O)nc4C#N)n3n2)ccc1F [compound 125] | 10 to 100 nM |
| C[C@@H](Cn1cnnn1)Oc1cc(-c2ccc3ncc(-c4cccc(OCC5CNC(=O)C5)c4C#N)n3n2)ccc1F (stereo partly shown) [compound 199] | < 10 nM |
| C[C@@H](Cn1cnnn1)Oc1cc(-c2ccc3ncc(-c4cn(CC(=O)OCc5ccccc5)nc4C#N)n3n2)ccc1F [compound 124] | 10 to 100 nM |
| C[C@@H](Cn1cnnn1)Oc1cccc(-c2ccn3ncc(-c4cccc(C(=O)NCCc5cccnc5)c4)c3n2)c1 [compound 108] | < 10 nM |
| C[C@@H](Cn1cnnn1)Oc1cc(-c2ccn3ncc(-c4ccccc4Cl)c3n2)ccc1F [compound 133] | 10 to 100 nM |

Same assay, conditions: in vitro CaMKII inhibitory activity (binding assay), human CaMKIIδ; read-out: Act

| SMILES | IC50 |
| --- | --- |
| C[C@@H](Cn1cnnn1)Oc1cccc(-c2ccc3ncn(-c4cccc(C(F)F)c4C#N)c3n2)n1 [compound 397] | > 100 nM |
| COc1cc(F)cc(-n2cnc3ccc(-c4cccc(O[C@@H](C)Cn5cnnn5)n4)nc32)c1C#N [Example 393, 4-fluoro-2-methoxy-6-[5-(6-{[(2S)-1-(1H-tetrazol-1-yl)propan-2-yl]oxy}pyridin-2-yl)-3H-imidazo[4,5-b]pyridin-3-yl]benzonitrile] | < 10 nM |
| COc1ccnc(-n2cnc3ccc(-c4ccc(F)c(O[C@@H](C)Cn5cnnn5)c4)nc32)c1C#N [compound 355] | < 10 nM |
| COCCCn1ncc(-c2cnc3ccc(-c4ccc(F)c(O[C@@H](C)Cn5cnnn5)c4)nn23)c1C(=O)N(C)C [compound 236] | > 100 nM |
| COc1cc(-c2cnc3ccc(-c4cccc(O[C@@H](C)Cn5cnnn5)c4)nn23)c(C#N)cn1 [Example 289, 6-methoxy-4-[6-(3-{[(2S)-1-(1H-tetrazol-1-yl)propan-2-yl]oxy}phenyl)imidazo[1,2-b]pyridazin-3-yl]pyridine-3-carbonitrile] | < 10 nM |
| CCOc1ccnc(-c2cnc3ccc(-c4cccc(O[C@@H](C)Cn5cnnn5)c4)nn23)c1C#N [compound 366] | < 10 nM |
| C[C@@H](Cn1cnnn1)Oc1cccc(-c2ccc3ncn(-c4cc(OC(F)F)ccc4C#N)c3n2)n1 [compound 385] | > 100 nM |
| COc1cc(OC)c(C#N)c(-c2cnc3ccc(-c4cccc(O[C@@H](C)Cn5cnnn5)n4)nn23)c1 [compound 456] | < 10 nM |
| CC(=O)c1ccc(C#N)c(-c2cnc3ccc(-c4cccc(O[C@@H](C)Cn5cnnn5)c4)nn23)n1 [compound 389] | 10 to 100 nM |
| C[C@@H](Cn1cnnn1)Oc1cc(-c2ccc3ncc(-c4cc(F)cn(C)c4=O)n3n2)ccc1F [compound 317] | < 10 nM |
| C[C@@H](Cn1cnnn1)Oc1cncc(-c2ccc3ncc(-c4cc(Cl)ccc4C#N)n3n2)n1 [compound 441] | < 10 nM |
| C[C@@H](Cn1cnnn1)Oc1cc(-c2ccc3ncc(-c4nccc(N(C(=O)OC(C)(C)C)C(=O)OC(C)(C)C)c4C#N)n3n2)ccc1F [compound 232] | < 10 nM |
| C[C@@H](Cn1cnnn1)Oc1ccnc(-c2ccc3ncn(-c4cc(F)ccc4C#N)c3n2)c1 [compound 330] | < 10 nM |
| C[C@@H](Cn1cnnn1)Oc1cccc(-c2ccc3ncc(-c4ccn(C)c(=O)c4C#N)n3n2)c1 [compound 259, 1-methyl-2-oxo-4-[6-(3-{[(2S)-1-(1H-tetrazol-1-yl)propan-2-yl]oxy}phenyl)imidazo[1,2-b]pyridazin-3-yl]-1,2-dihydropyridine-3-carbonitrile] | < 10 nM |
| COCCOc1ccnc(-c2cnc3ccc(-c4cccc(O[C@@H](C)Cn5cnnn5)c4)nn23)c1C#N [compound 469] | < 10 nM |
| Cc1ccc(C#N)c(-c2cnc3ccc(-c4cccc(O[C@@H](C)Cn5cnnn5)c4)nn23)n1 [compound 278] | < 10 nM |
| C[C@@H](Cn1cnnn1)Oc1cccc(-c2ccc3ncc(-c4ccccc4C#N)n3n2)n1 [compound 425, 2-[6-(6-{[(2S)-1-(1H-tetrazol-1-yl)propan-2-yl]oxy}pyridin-2-yl)imidazo[1,2-b]pyridazin-3-yl]benzonitrile] | < 10 nM |
| C[C@@H](Cn1cnnn1)Oc1cccc(-c2ccc3ncc(-c4cc(=O)[nH]cc4C#N)n3n2)c1 [compound 318] | < 10 nM |
| COc1ncccc1-c1cnc2ccc(-c3cccc(O[C@@H](C)Cn4cnnn4)c3)nn12 [compound 332] | < 10 nM |
| C[C@@H](Cn1cnnn1)Oc1cccc(-c2ccc3ncn(-c4cc(Cl)ccc4C#N)c3n2)n1 [compound 442] | < 10 nM |
| C[C@@H](Cn1cnnn1)Oc1cc(-c2ccc3ncc(-c4cnccc4C#N)n3n2)ccc1F [Example 275, 3-[6-(4-fluoro-3-{[(2S)-1-(1H-tetrazol-1-yl)propan-2-yl]oxy}phenyl)imidazo[1,2-b]pyridazin-3-yl]pyridine-4-carbonitrile] | < 10 nM |
| C[C@@H](Cn1cnnn1)Oc1cccc(-c2ccc3ncc(-c4ncncc4C#N)n3n2)c1 [compound 273] | 10 to 100 nM |
| C[C@@H](Cn1cnnn1)Oc1cccc(-c2ccc3ncc(-c4c(C#N)ccc(F)c4F)n3n2)n1 [compound 422] | < 10 nM |
| COc1ncc(F)cc1-c1cnc2ccc(-c3ccc(F)c(O[C@@H](C)Cn4cnnn4)c3)nn12 [compound 270] | < 10 nM |
| C[C@@H](Cn1cnnn1)Oc1cc(-c2ccc3ncc(-c4nccc(OCF)c4C#N)n3n2)ccc1F [Example 435, 2-[6-(4-fluoro-3-{[(2S)-1-(1H-tetrazol-1-yl)propan-2-yl]oxy}phenyl)imidazo[1,2-b]pyridazin-3-yl]-4-(fluoromethoxy)pyridine-3-carbonitrile] | < 10 nM |
| C[C@@H](Cn1cnnn1)Oc1cccc(-c2ccn3ncc(-c4ncccc4C#N)c3n2)c1 [compound 304] | < 10 nM |
| C[C@@H](Cn1cnnn1)Oc1cccc(-c2ccc3ncc(-c4nccc(NCC(F)F)c4C#N)n3n2)c1 [compound 367] | 10 to 100 nM |
| C[C@@H](Cn1cnnn1)Oc1cccc(-c2ccc3ncc(-c4ncccc4C#N)n3n2)n1 [compound 458] | > 100 nM |
| C[C@@H](Cn1cnnn1)Oc1cncc(-c2ccc3ncc(-c4cc(F)ccc4C#N)n3n2)c1 [compound 287, 4-fluoro-2-[6-(5-{[(2S)-1-(1H-tetrazol-1-yl)propan-2-yl]oxy}pyridin-3-yl)imidazo[1,2-b]pyridazin-3-yl]benzonitrile] | < 10 nM |
| COc1ccc(-c2cnc3ccc(-c4ccc(F)c(O[C@@H](C)Cn5cnnn5)c4)nn23)c(C#N)n1 [compound 249] | < 10 nM |

From patent US12528816B2, “Substituted imidazo [1,2-b] pyridazines and [1, 2, 4] triazolo [ 4,3-b] pyridazines as camkii inhibitors” (Cardurion Pharmaceuticals, INC., priority 2020, dated 2026)
